Activity calls are given as the source filed them.
Columns and labels:
Format in all cases: functional, organism-based
[1] = test system: Mus musculus; assay: Antidepressant activity against dark-induced depression in Albino Swiss mouse assessed as decrease in immobility period at 30 mg/kg, ip once daily for 4 days and 30 mins before test on day 5 by forced swimming test; parameters: dose 30 mg/kg
[2] = test system: Mus musculus; assay: Antidepressant activity against dark-induced depression in Albino Swiss mouse assessed as decrease in immobility period at 15 mg/kg, ip once daily for 4 days and 30 mins before test on day 5 by forced swimming test; parameters: dose 15 mg/kg
[3] = test system: Mus musculus; assay: Antidepressant activity against dark-induced depression in Albino Swiss mouse assessed as increase in brain serotonin level at 15 mg/kg, ip once daily for 4 days and 30 mins before test on day 5; parameters: dose 15 mg/kg
[4] = test system: Mus musculus; assay: Antidepressant activity against dark-induced depression in Albino Swiss mouse assessed as decrease in immobility period at 20 mg/kg, ip once daily for 4 days and 30 mins before test on day 5 by forced swimming test; parameters: dose 20 mg/kg
[5] = test system: Mus musculus; assay: Antidepressant activity against dark-induced depression in Albino Swiss mouse assessed as increase in brain serotonin level at 20 mg/kg, ip once daily for 4 days and 30 mins before test on day 5; parameters: dose 20 mg/kg

Measured: Activity

O=C1C=CC(=O)[C@H]2CC=C[C@@H]([C@H]3C(=O)N(C4CCCCC4)[C@H]3c3ccccc3)[C@@H]12
active: [1] | [2] | [3]

Cc1ccc(N2C(=O)[C@@H]3[C@H]([C@H]4C(=O)N(C5CCCCC5)[C@H]4c4ccc(Cl)cc4)C=CC[C@@H]3C2=O)cc1
inactive: [1] | [2] | [3]

CNCCC(Oc1ccc(C(F)(F)F)cc1)c1ccccc1 (stereo not given)
active: [4] | [5]

COc1ccc([C@@H]2[C@@H]([C@@H]3C=CC[C@@H]4C(=O)N(c5ccccc5)C(=O)[C@H]34)C(=O)N2c2ccccc2)cc1
active: [1] | [2] | [3] | [5]

O=C1OC(=O)[C@H]2CC=C[C@@H]([C@H]3C(=O)N(c4ccccc4)[C@@H]3c3ccccc3)[C@@H]12
active: [1] | [2] | [3]

Source: ChEMBL document CHEMBL1142501, “PASS-assisted exploration of antidepressant activity of 1,3,4-trisubstituted-beta-lactam derivatives” (Bioorg Med Chem Lett, 2008)
